Measured values as given in patent US20230416205A1, “COMPOUNDS, COMPOSITIONS, AND METHODS” (Denali Therapeutics Inc, priority 2020, published 2023).
Where two headings read alike, the source gives them in different places.

Tested on: NLRP3
Test: IL-1β secretion assay in PMA-differentiated, LPS/nigericin-stimulated THP-1 cells (384-well, ELISA read-out)
Type: cell-based, human
Conditions: Homo sapiens
How it was run: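 Secreted IL-1β quantified by capture ELISA from supernatants of PMA-differentiated THP-1 cells (30K per well). Sequence: LPS 25 ng/mL priming 2 h, compound 1 h, nigericin 2 h; dose-responses normalized between high (LPS plus 5 μM nigericin) and low (LPS alone) controls.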

[1] = THP-1, IL-1β secretion, PMA-differentiated THP-1 cells, LPS then nigericin stimulation, ELISA read at 450 nm, read-out: Activity
[2] = THP-1, Table 4, IL-1β secretion, LPS/nigericin-stimulated THP-1 cells, read-out: IC50

Row | Structure (SMILES) | IC50 [1] [µM] | IC50 [2] [µM]
1 | O=C(CN1CC2(CC2)c2cc(Br)ccc2C1=O)Nc1ccc2[nH]ncc2c1 [Example 170, 2-(6-bromo-1-oxospiro[3H-isoquinoline-4,1′-cyclopropane]-2-yl)-N-(1H-indazol-5-yl)acetamide] | < 10 | 1.12
2 | Cc1cncc(NC(=O)CN2CC3(CC3)c3cc(Br)ccc3C2=O)n1 [Example 171, 2-(6-bromo-1-oxospiro[3H-isoquinoline-4,1′-cyclopropane]-2-yl)-N-(6-methylpyrazin-2-yl)acetamide] | 10 to 15 | 11
3 | O=C(CN1CC2(CC2)c2cc(Br)ccc2C1=O)Nc1ccc(-c2nnn[nH]2)cc1 [Example 172, 2-(6-bromo-1-oxospiro[3H-isoquinoline-4,1′-cyclopropane]-2-yl)-N-[4-(1H-tetrazol-5-yl)phenyl]acetamide] | > 15 | 23.7
4 | O=C(CN1CC2(CC2)c2cc(Br)ccc2C1=O)Nc1ccc2ocnc2c1 [Example 173, N-(1,3-benzoxazol-5-yl)-2-(6-bromo-1-oxospiro[3H-isoquinoline-4,1′-cyclopropane]-2-yl)acetamide] | < 10 | 2.3
5 | CC(C)(O)CC1(NC(=O)CN2CC3(CC3)c3cc(Br)ccc3C2=O)CC1 [Example 174, 2-(6-bromo-1-oxospiro[3H-isoquinoline-4,1′-cyclopropane]-2-yl)-N-[1-(2-hydroxy-2-methylpropyl)cyclopropyl]acetamide] | 10 to 15 | 10.9
6 | O=C(CN1CC2(CC2)c2cc(Br)ccc2C1=O)Nc1ccn2nccc2n1 [Example 175, 2-(6-bromo-1-oxospiro[3H-isoquinoline-4,1′-cyclopropane]-2-yl)-N-pyrazolo[1,5-a]pyrimidin-5-ylacetamide] | < 10 | 0.672
7 | O=C(CN1CC2(CC2)c2cc(Br)ccc2C1=O)Nc1cc2cccnc2cn1 [Example 176, 2-(6-bromo-1-oxospiro[3H-isoquinoline-4,1′-cyclopropane]-2-yl)-N-(1,7-naphthyridin-6-yl)acetamide] | < 10 | 2.95
8 | N#Cc1ccc2c(c1)C1(CC1)CN(CC(=O)Nc1ncc(F)cn1)C2=O [Example 177, 2-(6-cyano-1-oxospiro[3H-isoquinoline-4,1′-cyclopropane]-2-yl)-N-(5-fluoropyrimidin-2-yl)acetamide] | < 10 | 4.41
9 | CC1(C)CN(CC(=O)Nc2ncc(F)cn2)C(=O)c2ccc(Br)cc21 [Example 178, 2-(6-bromo-4,4-dimethyl-1-oxo-3H-isoquinolin-2-yl)-N-(5-fluoropyrimidin-2-yl)acetamide] | < 10 | 1.05
10 | O=C(CN1CC2(CC2)c2cc(Br)ccc2C1=O)Nc1cn2ccnc2cn1 [Example 179, 2-(6-bromo-1-oxospiro[3H-isoquinoline-4,1′-cyclopropane]-2-yl)-N-imidazo[1,2-a]pyrazin-6-ylacetamide] | < 10 | 2.24
11 | O=C(CN1CC2(CC2)c2cc(Br)ccc2C1=O)Nc1ccc2nccn2n1 [Example 180, 2-(6-bromo-1-oxospiro[3H-isoquinoline-4,1′-cyclopropane]-2-yl)-N-imidazo[1,2-b]pyridazin-6-ylacetamide] | < 10 | 0.508
12 | O=C(CN1CC2(CC2)c2cc(Br)ccc2C1=O)Nc1nc2ccccn2n1 [Example 181] | < 10 | 0.143
13 | Cc1ccnc(NC(=O)CN2CC3(CC3)c3cc(Br)ccc3C2=O)c1 [Example 182, 2-(6-bromo-1-oxospiro[3H-isoquinoline-4,1′-cyclopropane]-2-yl)-N-(4-methylpyridin-2-yl)acetamide] | < 10 | 3.14
14 | CS(=O)(=O)c1ccc(NC(=O)CN2CC3(CC3)c3cc(Br)ccc3C2=O)c(Cl)c1 [Example 183, 2-(6-bromo-1-oxospiro[3H-isoquinoline-4,1′-cyclopropane]-2-yl)-N-(2-chloro-4-methylsulfonylphenyl)acetamide] | < 10 | 8.08
15 | Cc1nc(NC(=O)CN2CC3(CC3)c3cc(Br)ccc3C2=O)ncc1F [Example 184, 2-(6-bromo-1-oxospiro[3H-isoquinoline-4,1′-cyclopropane]-2-yl)-N-(5-fluoro-4-methylpyrimidin-2-yl)acetamide] | < 10 | 0.651
16 | COc1cnc(NC(=O)CN2CC3(CC3)c3cc(Br)ccc3C2=O)nc1 [Example 185, 2-(6-bromo-1-oxospiro[3H-isoquinoline-4,1′-cyclopropane]-2-yl)-N-(5-methoxypyrimidin-2-yl)acetamide] | < 10 | 0.469
17 | O=C(CN1CC2(CC2)c2cc(Br)ccc2C1=O)Nc1ncc(-n2cccn2)cc1F [Example 186, 2-(6-bromo-1-oxospiro[3H-isoquinoline-4,1′-cyclopropane]-2-yl)-N-(3-fluoro-5-pyrazol-1-ylpyridin-2-yl)acetamide] | < 10 | 5.23
18 | Cc1nc(-c2ccnc(NC(=O)CN3CC4(CC4)c4cc(Br)ccc4C3=O)n2)cs1 [Example 187, 2-(6-bromo-1-oxospiro[3H-isoquinoline-4,1′-cyclopropane]-2-yl)-N-[4-(2-methyl-1,3-thiazol-4-yl)pyrimidin-2-yl]acetamide] | < 10 | 0.871
19 | O=C(CN1CC2(CC2)c2cc(Br)ccc2C1=O)Nc1nc2n(n1)CCC2 [Example 188, 2-(6-bromo-1-oxospiro[3H-isoquinoline-4,1′-cyclopropane]-2-yl)-N-(6,7-dihydro-5H-pyrrolo[1,2-b][1,2,4]triazol-2-yl)acetamide] | < 10 | 1.29
20 | Cn1ncc2nc(NC(=O)CN3CC4(CC4)c4cc(Br)ccc4C3=O)ccc21 [Example 189, 2-(6-bromo-1-oxospiro[3H-isoquinoline-4,1′-cyclopropane]-2-yl)-N-(1-methylpyrazolo[4,3-b]pyridin-5-yl)acetamide] | < 10 | 3.76
21 | Cn1cc2nc(NC(=O)CN3CC4(CC4)c4cc(Br)ccc4C3=O)ccc2n1 [Example 190, 2-(6-bromo-1-oxospiro[3H-isoquinoline-4,1′-cyclopropane]-2-yl)-N-(2-methylpyrazolo[4,3-b]pyridin-5-yl)acetamide] | < 10 | 0.691
22 | O=C(CN1CC2(CC2)c2cc(Br)ccc2C1=O)Nc1ccc2ccncc2c1 [Example 191, 2-(6-bromo-1-oxospiro[3H-isoquinoline-4,1′-cyclopropane]-2-yl)-N-isoquinolin-7-ylacetamide] | < 10 | 1.15
23 | O=C(CN1CC2(CC2)c2cc(Br)ccc2C1=O)Nc1ncncn1 [Example 192, 2-(6-bromo-1-oxospiro[3H-isoquinoline-4,1′-cyclopropane]-2-yl)-N-(1,3,5-triazin-2-yl)acetamide] | < 10 | 0.309
24 | O=C(CN1CC2(CC2)c2cc(Br)ccc2C1=O)Nc1ncc(C(F)(F)F)cn1 [Example 193, 2-(6-bromo-1-oxospiro[3H-isoquinoline-4,1′-cyclopropane]-2-yl)-N-[5-(trifluoromethyl)pyrimidin-2-yl]acetamide] | < 10 | 0.24
25 | O=C(CN1CC2(CC2)c2cc(Br)ccc2C1=O)Nc1ncc(C2CC2)cn1 [Example 194, 2-(6-bromo-1-oxospiro[3H-isoquinoline-4,1′-cyclopropane]-2-yl)-N-(5-cyclopropylpyrimidin-2-yl)acetamide] | < 10 | 0.39
